Results published in patent US20050070480A1, “Peptide arginals and methods for treating disseminated intravascular coagulation” (priority 2001, published 2005).
Where two headings read alike, the source gives them in different places. Non-standard residues stand in square brackets, D forms with d. Residues, ends and D or L forms follow the SMILES beside them. dNMeChg = CN[C@@H](C(=O)O)C1CCCCC1; Aze = O=C(O)[C@@H]1CCN1

Key:
[1] = system: citrated human plasma (exogenous thrombin); assay: Thrombin time (TT) plasma clotting assay; assay type: biochemical; details: thrombin 2.5 NIH U/ml
Experimental: (§1) The inhibitory effect on plasma coagulation was evaluated in the thrombin time (TT), activated partial thromboplastin time (APTT) and prothrombin time (PT) assays by using citrated human plasma as substrate [Bagdy, D. et. al.: Thromb. Haemostas. 67, 325 (1992)]. The TT assay measures the inhibition of a single step, the coagulation of fibrinogen on the action of exogenous thrombin (final concentration 2.5 NIH U/ml). Clotting of plasma in the APTT and PT assays was induced by recalcification. Endogenous thrombin generated could theoretically be present at a final concentration as high as 50 NIH U/ml (APTT, PT). These assays detect the sum of inhibitory actions on fibrin formation and thrombin generation, which includes several proteolytic reactions mediated by either thrombin or other enzymes, e.g. fXa. Anticlotting activity is expressed in CT2, which is the concentration (nM) required to double the clotting time.

citrated human plasma [2] = assay: Activated partial thromboplastin time (APTT) plasma clotting assay; assay type: biochemical
Experimental: as §1

citrated human plasma [3] = assay: Prothrombin time (PT) plasma clotting assay; assay type: biochemical
Experimental: as §1

clot-bound thrombin = clot-bound thrombin (Homo sapiens, UniProt P00734); assay: Enzyme inhibition in platelet-rich plasma clots, chromogenic substrate Tos-Gly-Pro-Arg-pNA; assay type: biochemical; details: for IC50: clot-bound thrombin, platelet-rich plasma clot
Experimental: (§2) Tos-Gly-Pro-Arg-pNA (S1) for thrombin and Moc-D-Chg-Gly-Arg-pNA (S2) for factor Xa, as published (Bajusz, S. et al.: PCT Pub. No. WO97/46576) briefly. The assays were carried out at room temperature in glass tubes and 96-well microtiter plates.
(§3) Solutions, (i) Buffer A: 0.1 M sodium phosphate/0.05 M NaCl (pH 8.5). (ii) Inhibitors: 0.1, 1.0 and 10 mg/ml solutions in buffer A containing 0.02% human albumin. (iii) Substrates: 1 mM of S1 and 2 mM of S2 in distilled water.
(§4) (b) Preparation of plasma clots. Platelet rich plasma samples (200 μl) placed in glass tubes were incubated at room temperature with 80 μl 40 mM CaCl2 for 60 min. The clots were washed with 2 ml aliquots of saline (0.9% NaCl) with gentle agitation to remove unbound enzymes In case of successful washing the optical density of the reaction mixture of wash and S1 is less than 5% of the control. The plasma clot thus obtained was kept under saline in the tube until use.
(§5) (c) Assessment of the enzyme inhibition in the clots. After removal of saline, the plasma clot was incubated at 37° C. with 400 μl inhibitor (or buffer A as negative control) for 5 min. and with 100 μl substrate S1 or S3 for 30 min., then the reaction was stopped with 100 μl 50% acetic acid. 150 μl portions of the reaction mixtures were placed in the wells of a microtiter plate and read at 405 nm (ELISA READER 800, Bio-Tek Instruments Inc. Winooski, Vt., USA). IC50 values were generated from the extinction data graphically.

clot-bound factor Xa = clot-bound factor Xa (Homo sapiens, UniProt P00742); assay: Enzyme inhibition in platelet-rich plasma clots, chromogenic substrate Moc-D-Chg-Gly-Arg-pNA; assay type: biochemical
Experimental: as §2, §3, §4, §5

plasmin (PL) = plasmin (PL) (Homo sapiens, UniProt P00747); assay: Fibrin plate assay, plasmin; assay type: biochemical; details: reduction of lysed area to 50% of control, read-out: LA50 PL
From the text: (§6) Inhibitory effects of the compounds of the invention on plasmin (PL) and plasmin generation by plasminogen (Plogen) activators, such as tissue plasminogen activator (tPA), and urokinase (UK) were examined by the fibrin plate assay. (See e.g., Bagdy, D., Barabás, E., Bajusz, S., and Széll, E., Thromb. Haemostas., 67:325-330 (1992); Barabás, E. Szell, E. and Bajusz, S, Blood Coagulation and Fibrinolysis, 4: 243 (1993)) The results are shown in Table 1, Column C. With a few exceptions the analogues are somewhat more inhibitory than Efegatran against the three fibrinolytic enzymes.

[4] = target: tissue plasminogen activator (tPA) (Homo sapiens, UniProt P00750); assay: Fibrin plate assay, tissue plasminogen activator; assay type: biochemical; details: reduction of lysed area to 50% of control, read-out: LA50 tPA
From the text: as §6

urokinase (UK) = urokinase (UK) (Homo sapiens, UniProt P00749); assay: Fibrin plate assay, urokinase; assay type: biochemical; details: for IC50: reduction of lysed area to 50% of control, urokinase, read-out: LA50 UK
From the text: as §6

[5] = system: endotoxin-treated rabbits; assay type: in vivo, rabbit
LPS-treated rats = assay: Survival in a rat model for disseminated intravascular coagulation; assay type: in vivo; details: for Effectiveness on survival compared with reference C (in words): LPS-treated rats; for Survival rate %: rats, 30 mg/kg LPS i.v.
[6] = 0.5 mg/kg bolus + infusion, 0 hours
[7] = 0.5 mg/kg bolus + infusion, 4 hours
[8] = 0.5 mg/kg bolus + infusion, 5 hours
[9] = 0.5 mg/kg bolus + infusion, 6 hours
[10] = 0.5 mg/kg bolus + infusion, 7 hours
[11] = 0.5 mg/kg bolus + infusion, 8 hours
[12] = 0.75 mg/kg bolus + infusion, 0 hours
[13] = 0.75 mg/kg bolus + infusion, 4 hours
[14] = 0.75 mg/kg bolus + infusion, 5 hours
[15] = 0.75 mg/kg bolus + infusion, 6 hours
[16] = 0.75 mg/kg bolus + infusion, 7 hours
[17] = 0.75 mg/kg bolus + infusion, 8 hours
[18] = 1.5 mg/kg bolus + infusion, 0 hours
[19] = 1.5 mg/kg bolus + infusion, 4 hours
[20] = 1.5 mg/kg bolus + infusion, 5 hours
[21] = 1.5 mg/kg bolus + infusion, 6 hours
[22] = 1.5 mg/kg bolus + infusion, 7 hours
[23] = 1.5 mg/kg bolus + infusion, 8 hours
[24] = endotoxin-treated rabbits, 0.5 mg/kg/h infusion, 2 hrs
[25] = endotoxin-treated rabbits, 0.5 mg/kg/h infusion, 4 hrs

clot-bound factor Xa, sequence (P00742 235-488 limits assumed): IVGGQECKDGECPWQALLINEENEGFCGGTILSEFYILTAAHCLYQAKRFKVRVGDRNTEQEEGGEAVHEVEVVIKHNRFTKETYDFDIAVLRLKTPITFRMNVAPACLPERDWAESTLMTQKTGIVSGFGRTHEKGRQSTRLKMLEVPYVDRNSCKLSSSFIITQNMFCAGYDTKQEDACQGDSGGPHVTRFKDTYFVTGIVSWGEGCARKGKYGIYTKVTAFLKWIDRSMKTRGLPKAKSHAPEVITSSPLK
clot-bound factor Xa, sequence (P00742 41-179 limits assumed): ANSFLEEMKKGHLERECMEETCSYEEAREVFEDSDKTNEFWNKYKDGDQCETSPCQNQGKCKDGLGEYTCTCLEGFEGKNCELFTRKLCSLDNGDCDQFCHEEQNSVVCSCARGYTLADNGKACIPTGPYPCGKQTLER
plasmin (PL), sequence (P00747 581-810 limits assumed, species assumed): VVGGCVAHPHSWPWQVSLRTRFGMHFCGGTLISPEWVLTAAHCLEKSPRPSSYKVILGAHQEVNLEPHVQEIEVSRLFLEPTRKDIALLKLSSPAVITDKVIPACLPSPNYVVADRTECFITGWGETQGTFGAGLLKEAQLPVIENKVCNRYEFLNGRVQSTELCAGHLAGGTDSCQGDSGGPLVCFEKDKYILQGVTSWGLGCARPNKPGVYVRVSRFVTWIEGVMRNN
plasmin (PL), sequence (P00747 97-580 limits assumed, species assumed): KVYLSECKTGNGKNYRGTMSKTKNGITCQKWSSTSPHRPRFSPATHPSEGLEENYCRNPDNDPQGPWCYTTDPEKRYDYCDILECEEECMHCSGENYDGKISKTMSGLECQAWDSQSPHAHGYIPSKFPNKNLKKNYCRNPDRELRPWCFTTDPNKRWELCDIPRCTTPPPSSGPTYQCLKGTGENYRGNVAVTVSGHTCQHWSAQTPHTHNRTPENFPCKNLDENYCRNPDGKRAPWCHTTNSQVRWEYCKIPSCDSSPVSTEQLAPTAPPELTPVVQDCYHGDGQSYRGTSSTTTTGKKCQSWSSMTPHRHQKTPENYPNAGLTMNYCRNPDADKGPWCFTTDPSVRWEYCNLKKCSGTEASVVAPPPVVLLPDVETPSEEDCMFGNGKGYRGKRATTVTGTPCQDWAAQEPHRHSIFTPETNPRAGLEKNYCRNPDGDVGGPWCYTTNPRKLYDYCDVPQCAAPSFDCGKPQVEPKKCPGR
tissue plasminogen activator (tPA), sequence (P00750 36-562, species assumed): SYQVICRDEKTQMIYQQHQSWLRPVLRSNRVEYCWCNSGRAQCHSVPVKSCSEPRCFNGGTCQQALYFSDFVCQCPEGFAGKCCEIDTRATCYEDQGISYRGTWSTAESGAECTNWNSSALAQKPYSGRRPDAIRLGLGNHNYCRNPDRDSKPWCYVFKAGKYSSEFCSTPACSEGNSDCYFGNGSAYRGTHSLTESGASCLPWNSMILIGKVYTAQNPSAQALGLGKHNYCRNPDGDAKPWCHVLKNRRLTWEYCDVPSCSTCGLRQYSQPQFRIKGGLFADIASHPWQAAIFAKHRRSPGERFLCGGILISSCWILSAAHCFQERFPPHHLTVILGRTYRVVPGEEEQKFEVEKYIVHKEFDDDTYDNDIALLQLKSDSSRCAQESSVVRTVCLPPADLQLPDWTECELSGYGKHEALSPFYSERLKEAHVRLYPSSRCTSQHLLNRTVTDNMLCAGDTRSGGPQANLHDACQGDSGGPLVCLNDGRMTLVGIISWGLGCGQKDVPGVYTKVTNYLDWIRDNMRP

| Structure (SMILES) | CT2 TT (concentration required for doubling the clotting time) [1] [nM] | CT2 APTT (concentration required for doubling the clotting time) (citrated human plasma [2]) [nM] | CT2 PT (concentration required for doubling the clotting time) (citrated human plasma [3]) [nM] | Inhibition of clot-bound thrombin compared with Efegatran (in words) (clot-bound thrombin) | IC50 (clot-bound thrombin) [µM] | IC50 (clot-bound factor Xa) [µM] | IC50 (plasmin (PL)) [µM] | IC50 [4] [µM] | IC50 (urokinase (UK)) [µM] | Effectiveness on survival compared with reference C (in words) (LPS-treated rats) | Survival rate % (LPS-treated rats; [12]) [%] | Survival rate % (LPS-treated rats; [13]) [%] | Survival rate % (LPS-treated rats; [14]) [%] | Survival rate % (LPS-treated rats; [15]) [%] | Survival rate % (LPS-treated rats; [16]) [%] | Survival rate % (LPS-treated rats; [17]) [%] | Survival rate % (LPS-treated rats; [18]) [%] | Survival rate % (LPS-treated rats; [19]) [%] | Survival rate % (LPS-treated rats; [20]) [%] | Survival rate % (LPS-treated rats; [21]) [%] | further results |
| --- | --- | --- | --- | --- | --- | --- | --- | --- | --- | --- | --- | --- | --- | --- | --- | --- | --- | --- | --- | --- | --- |
| N=C(N)NCCC[C@@H](C=O)NC(=O)[C@@H]1CCCN1C(=O)[C@H](O)CC1CCCCCC1 [Compound 3, D-cycloheptyllactyl-L-prolyl-L-arginine aldehyde] | 86 | 281 | 1082 | surpass Efegatran | 0.095 | 0.117 | 21 | 10 | 85 | more effective than reference C | 100 | 100 | 100 | 100 | 100 | 92 | 100 | 100 | 100 | 100 | Activity against UK compared with Efegatran (in words) (urokinase (UK)): almost equiactive with Efegatran; Effect on lethality of endotoxin-treated rabbits (in words) ([5]; rabbit, in vivo): significantly reduce the lethality; Lethality %, 2 hrs ([5]; rabbit, in vivo, 0.25 mg/kg): 0%; Lethality %, 4 hrs ([5]; rabbit, in vivo, 0.25 mg/kg): 18%; Lethality no. died/treated animals, 2 hrs ([5]; rabbit, in vivo, 0.25 mg/kg): 0/22; Lethality no. died/treated animals, 4 hrs ([5]; rabbit, in vivo, 0.25 mg/kg): 4/22; Survival rate % (LPS-treated rats; [6]): 100%; Survival rate % (LPS-treated rats; [7]): 100%; Survival rate % (LPS-treated rats; [8]): 100%; Survival rate % (LPS-treated rats; [9]): 100%; Survival rate % (LPS-treated rats; [10]): 100%; Survival rate % (LPS-treated rats; [11]): 80%; Survival rate % (LPS-treated rats; [22]): 100%; Survival rate % (LPS-treated rats; [23]): 92% |
| CN[C@H](CC1CCCCCC1)C(=O)N1CCC[C@H]1C(=O)N[C@H](C=O)CCCNC(=N)N [Compound 2, N-methyl-D-cycloheptylalanyl-L-prolyl-L-arginine aldehyde] | 118 | 315 | 876 | surpass Efegatran | 0.093 | 0.102 | 16 | 14 | 18 | more effective than reference C | 100 | 86 | 78 | 57 | 57 | 50 | 100 | 100 | 100 | 100 | Survival rate % (LPS-treated rats; 1.0 mg/kg bolus + infusion, 0 hours): 100%; Survival rate % (LPS-treated rats; 1.0 mg/kg bolus + infusion, 4 hours): 100%; Survival rate % (LPS-treated rats; 1.0 mg/kg bolus + infusion, 5 hours): 100%; Survival rate % (LPS-treated rats; 1.0 mg/kg bolus + infusion, 6 hours): 100%; Survival rate % (LPS-treated rats; 1.0 mg/kg bolus + infusion, 7 hours): 90%; Survival rate % (LPS-treated rats; 1.0 mg/kg bolus + infusion, 8 hours): 90%; Survival rate % (LPS-treated rats; [22]): 100%; Survival rate % (LPS-treated rats; [23]): 100% |
| CN[C@@H](C(=O)N1CC[C@H]1C(=O)N[C@H](C=O)CCCNC(=N)N)C1CCCCC1 [Compound 4, N-methyl-D-cyclohexylglycyl-L-azetidine-2-carbonyl-L-arginine aldehyde] (H-[dNMeChg]-[Aze]-Arg-aldehyde) | 101 | 677 | 2921 | surpass Efegatran | 0.245 | 0.457 | 32 | 12 | 16 | more effective than reference C | 100 | 100 | 100 | 100 | 92 | 85 | 100 | 100 | 100 | 100 | Survival rate % (LPS-treated rats; [6]): 100%; Survival rate % (LPS-treated rats; [7]): 93%; Survival rate % (LPS-treated rats; [8]): 87%; Survival rate % (LPS-treated rats; [9]): 87%; Survival rate % (LPS-treated rats; [10]): 87%; Survival rate % (LPS-treated rats; [11]): 80%; Survival rate % (LPS-treated rats; [22]): 100%; Survival rate % (LPS-treated rats; [23]): 100% |
| N=C(N)NCCC[C@@H](C=O)NC(=O)[C@@H]1CCCN1C(=O)[C@H](O)C1CCCCCC1 [Compound C1, reference compound] | 120 | 333 | 1254 |  | 0.524 | 0.2 | 83 | 74 | 120 |  |  |  |  |  |  |  |  |  |  |  | Effect on lethality of endotoxin-treated rabbits (in words) ([5]; compared with endotoxin alone): no effect on lethality; Lethality %, 2 hrs [5, 24]: 0%; Lethality no. died/treated animals, 2 hrs [5, 24]: 0/16; Lethality %, 4 hrs [5, 25]: 31%; Lethality no. died/treated animals, 4 hrs [5, 25]: 5/16 |
